Test results taken from article PMC6155239, “Targeting PFKFB3 radiosensitizes cancer cells and suppresses homologous recombination” (Nature Communications, 2018).
Entries after “also recorded” stand apart in the source; their conditions may differ.

Columns and labels:
U2OS cells [1] = test: IR-induced Mre11 / Nbs1 foci formation; format: cell-based; details: treatment prior to IR (6 Gy, 2 h recovery)
Protocol: (§1) Cells were grown on sterilized coverslips and fixed with 4% paraformaldehyde (PFA) (Santa Cruz) and 2% sucrose (Sigma Aldrich) for 15 min at room temperature. They were then permeabilized with 0.2% NP-40 (Thermo Scientific) for 10 min at room temperature followed by 30 min of blocking in blocking buffer (2 or 3% BSA, 5% glycerol, 0.1% Tween 20 (Sigma Aldrich)). Coverslips were subsequently incubated for 1, 2, or 24 h in primary antibody and 40 min in secondary antibody diluted in blocking buffer, DNA was stained with DAPI for 10 min. The coverslips were mounted with Prolonged Gold mounting medium (Invitrogen). Images were acquired with a Zeiss LSM 780 microscope using a 40× or 63× oil immersion lens and processed in ImageJ and CellProfiler.

U2OS cells [2] = test: IR-induced nuclear recruitment of PFKFB3; format: cell-based; details: 2 h prior to IR
Protocol: as §1

U2OS cells [3] = test: Cell cycle analysis (propidium iodide, flow cytometry); format: cell-based; details: 24 h post-IR
Protocol: For cell cycle analysis, cells were treated or transfected with siRNA as described and harvested at the indicated time points with trypsin. For studies using IR, cells were exposed to IR with 2 Gy, and harvested at the indicated time points with trypsin. The cells were washed in PBS and fixed with 70% ethanol in PBS at 4 °C for 1 h and then stored at −20 °C until staining. Ethanol was removed by centrifugation and cells were then washed in PBS before staining DNA with propidium iodide (PI) solution containing 40 μg/mL PI, 100 μg/mL RNase A, and 0.1% Triton X-100 (Sigma Aldrich). Cells were analyzed by flow cytometry on a FACS Navios (Beckman Coulter) using Kaluza software.

U2OS DR-GFP cells = test: DR-GFP (HR) assay; format: cell-based
Protocol: 5 × 10^4 U2OS (DR-GFP) cells were seeded into 12-well plates, 24 h later cells were treated with the indicated siRNAs or inhibitors and, 24 h later, transfected with 150 ng of an I-SceI vector using JetPEI or JetPRIME (Polyplus transfections). The next day, the medium was changed; 24 h after this, cells were harvested by trypsinization and washed with PBS, and the GFP signal was measured by flow cytometry on a FACS Navios (as described above). The frequency of repair in cells treated with inhibitors or transfected with the various siRNAs was calculated relative to cells treated with DMSO or transfected with control siRNA.

PFKFB3 = PFKFB3 (Homo sapiens, UniProt Q16875); test: ADP-Glo kinase activity assay, PFKFB3; format: biochemical; details: in vitro enzymatic assay
Protocol: The kinase activity of the bi-functional enzyme was quantified based on the production of ADP and F-2,6-P2 from ATP by ADP-GloTM Kinase Assay (Promega). The assay was performed in two steps; first, after the kinase reaction, an equal volume of ADP-GloTM Reagent was added to terminate the kinase reaction and deplete the remaining ATP. Second, the Kinase Detection Reagent was added to simultaneously convert ADP to ATP and allow the newly synthesized ATP to be measured using a luciferase/luciferin reaction. The light generated was measured using a luminescence counter (1450 MicroBeta TriLux). The assay was performed in white 384-well plates (OptiPlate, 6007299, PerkinElmer) by consecutive additions of a test compound solution (0.1 µL, serial diluted in DMSO from compound DMSO stock solution and dispensed by acoustic dispensing from UV-star 384-well plate 7360153, VWR), enzyme solution (5 µL) and substrate (fructose-6-phosphate (F6P) and adenosine-5′-triphosphate (ATP)) containing solution (5 µL). […] Four reference dose–response curves, one of them being the QC compound, were included and serial diluted as the test compounds. The final concentrations of all reagents per well were 50 mM Tris–HCl at pH 8.0, 10 mM MgCl2, 5 mM NaPi at pH 8.0, 81.48 nM PFKFB3 or 145 nM PFKFB4, 8 µM ATP, 100 µM F6P (acid treated and then neutralized to remove any contaminating F-2,6-P2[34]), 0.005% Tween-20 and 1 mM dithiothreitol. Enzyme, compounds, and controls were pre-incubated at room temperature for 15 min before the addition of substrate solution. The enzymatic reaction was allowed to proceed for 20 min and the reaction was terminated by the addition of ADP-GloTM Reagent (10 µL) to all wells followed by 40 min incubation at room temperature. […] The inhibitory potency or IC50 values of test compounds on the kinase activity of the enzymes were calculated using a four-parameter model (model 205) in XLfit (IDBS ActivityBase XE Runner).

U2OS cells [4] = test: IR-induced RAD51 / RPA32 foci, confocal; format: cell-based; details: in combination with IR
Protocol: as §1
To visualize PFKFB3, RPA32, RAD51, BRCA1, 53BP1, and RRM2 IRIF, the cells were first washed with PBS and then incubated for 5 min at room temperature with cytoskeleton (CSK) buffer containing 10 mM PIPES pH 7.0 (Sigma Aldrich), 100 mM NaCl (EMD Millipore), 300 mM sucrose (Sigma Aldrich), 3 mM MgCl2 (Sigma Aldrich), and 0.7% Triton X-100 (Sigma Aldrich). After these treatments, the cells were washed once again with PBS and then fixed in 4% PFA with 2% sucrose.

Sequence of PFKFB3 (Q16875 whole entry): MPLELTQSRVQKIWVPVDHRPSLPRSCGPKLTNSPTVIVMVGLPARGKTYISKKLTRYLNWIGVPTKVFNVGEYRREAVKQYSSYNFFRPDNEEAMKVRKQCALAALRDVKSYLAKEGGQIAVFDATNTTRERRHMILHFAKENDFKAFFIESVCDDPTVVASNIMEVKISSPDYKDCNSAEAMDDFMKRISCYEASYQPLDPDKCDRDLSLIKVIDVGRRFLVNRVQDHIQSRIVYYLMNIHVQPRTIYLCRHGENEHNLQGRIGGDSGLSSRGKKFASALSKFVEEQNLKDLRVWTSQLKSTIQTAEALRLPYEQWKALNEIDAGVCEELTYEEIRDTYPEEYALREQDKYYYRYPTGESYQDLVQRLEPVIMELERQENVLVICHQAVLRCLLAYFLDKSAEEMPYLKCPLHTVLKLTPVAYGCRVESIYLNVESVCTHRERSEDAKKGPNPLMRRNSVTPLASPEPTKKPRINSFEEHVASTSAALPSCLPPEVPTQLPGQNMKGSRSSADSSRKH

## N=C1NC(=O)/C(=C/c2ccc(O)cc2)S1 [Mirin, reference compound]
U2OS cells [1]
  IR-induced Mre11 or Nbs1 foci formation (in words): completely blocked
U2OS cells [2]
  IR-induced recruitment of PFKFB3 (in words): blocked

## O=C(C=Cc1cccnc1)c1ccncc1 [3-PO, 3-(3-pyridinyl)-1-(4-pyridinyl)-2-propen-1-one, reference compound]
U2OS cells [3]
  accumulation of cells in G2/M phase upon IR (in words): not seen
U2OS DR-GFP cells
  effect on HR activity (in words): did not decrease HR activity; also recorded: without affecting HR activity
PFKFB3
  inhibition of recombinant PFKFB3 kinase activity (in words): could not achieve an IC50 value
U2OS cells [4]
  IR-induced recruitment of RPA32 and RAD51 into repair foci (in words): unaffected
